From patent publication US20040126755A1, “Gene expression based method for distinguishing metastatic from non-metastatic forms of a tumor, and use in designing therapeutic drugs” (priority 2001, published 2004)

Experiments:
Assay type in all cases: cell-based, human
[1] = test system: MAPK1/3; assay: Western blot, phospho-MAPK1/3 to total ratio in Daoy cell lysates
Description: (§1) Daoy cells were treated in a manner identical to that described above for migration. After described incubation with PDGFA, PDGFRA antibody, or MAP2K1/MAP2K2 inhibitor U0126, we prepared cell lysates by adding 500 ul lysis buffer (Cell Signaling Technology) to cell pellets on ice for 20 min, sonicating, and centrifuging at 10,000 RPM for 10 min. We collected the supernatants and mixed equal amounts of lysate protein (5.2 ug) in a 1:1 mixture with Tris-Glycine SDS sample buffer Covex). Samples were run on a 12% SDS-PAGE gel (BioRad) along with broad range protein markers (BioRad) at 125 V for 1 h. We transferred proteins to PVDF membrane (NEN Life Sciences) using a semi-dry transfer cell (BioRad). We first soaked the membrane in anhydrous methanol for 2 min, deionized water for 5 min, and transfer buffer (25 mM Tris, 0.2 M glycine, 20% methanol, pH 8.5) for 10 min. The gels were pre-soaked in transfer buffer for 15 min and subsequently electro-blotted to the membrane between filter paper soaked in transfer buffer for 45 min at a current equivalent to 2.5 × total gel area (cm^2). Following blotting, we incubated the membrane in blocking buffer (3% BSA in TBS-T) for 1 h at room temperature with gentle agitation. We subsequently incubated the membrane with primary antibody (MAP2K1/2 antibody, phospho-MAP2K1/2 (Ser217/221) antibody, MAPK1/3 (p42/p44 MAPK) antibody, or phospho-MAPK1/3 (Thr202/Tyr204) antibody; Cell Signaling Technology) diluted 1:1000 in blocking buffer overnight at 4° C. We washed the membranes in wash buffer (1% BSA in TBS-T) 3 times (1× for 10 min and 2× for 5 min) and incubated them with anti-rabbit HRP-conjugated secondary antibody (Cell Signaling Technology) diluted 1:2000 in blocking buffer for 1 h with gentle agitation at room temperature. We subsequently washed membranes with gentle agitation 5 times with 1%BSA in TBS-T (1× for 10 min in, 4× for 5 min) and once in TBS-T for 5 min. […] We scanned the developed films, and determined the optical density of each lane using NIH Image (available at http://rsb.info.nih.gov/nih-image/Default.html). […]

[2] = test system: Daoy cells; assay: Fibronectin-mediated cell migration assay (Boyden chamber, Chemicon QCM-FN)
Description: Fibronectin-mediated cell adhesion and migration were assessedusing the Chemicon QCM-FN Quantitative Cell Migration Assay (Chemicon International). Briefly, Daoy cells were grown in EMEM withh 10% FBS to 80% confluency and starved in serum-free EMEM for 24 h. Cells were washed twice with PBS, harvested them with trypsin/EDTA, and resuspended them in serum-free EMEM (1×10^6 cells/ml) with 5% BSA for 1 h. We subsequently incubated cells at 37 ° C. for 30 min with either no antibody, 0.6 ug/ml of neutralizing monoclonal anti-human PDGFRA antibody (R&D Systems), 0.6 ug/mi isotype-matched control antibody (R&D Systems), and or first pretreated them with 10 μM of MAP2K1/MAP2K2 inhibitor U0126 (Cell Signaling Technology) for 1 h. We based the concentration of antibody used on the ND50 for this lot of antibody for blocking 10 ng/ml of PDGFRA biologic activity on human WS1 cells (per R&D Systems product insert). We based the concentration of MAP2K1/MAP2K2 inhibitor U0126 used on the manufacturer?s recommendation. Following incubations, we resuspended the cells, and placed aliquots of 2×10^5 cells in 200 ul of serum-free EMEM into the upper fibronectin-(FN-) coated or BSA-coated (control) Boyden chambers (migration assay), or FN-coated wells (adhesion assay). The lower well contained 0, 1, 2, 4, 6, 8, or 10 ng/ml PDGFA (Chemicon) in 300 ll serum-free EMEM. We incubated the cells for 3 h at 37° C., stained them with cell stain solution (Chemicon), and subsequently washed them. We removed the medium, as well as non-adherent or non-migrating cells, from the upper side of the Boyden chamber membranes. We first visualized the cells by microscopy, and then subsequently eluted migrating or adherent cells with extraction solution (Chemicon) according to the manufacturer? s instructions. We aliquoted eluant (50 μl)×2 for each test sample into microtiter plates, and read the optical density (OD540-570) on a ThermoMax microplate reader (Molecular Devices). Using standardized migration rates of 130 cells per mm^2 equivalent to an OD550 of 0.270 (per Chemicon product insert), we obtained the final cell counts by averaging the two OD measurements (540 nm and 570 nm) after subtraction of the BSA control measurements (background), and determined significance (P value) using a t-test.
We tested the significance of PDGFRA in the metastatic potential of Daoy cells by fibronectin-dependent adhesion and migration assays.
To further test whether medulloblastoma migration is directly linked in part to downstream MAP2K1, MAP2K2 and MAPK1/3 activation, Daoy migration was tested in an identical fashion to that described above, except that cells were pretreated with U0126, a highly specific chemical inhibitor of MAP2K1 and MAP2K2 (FIG. 5b).

[3] = test system: MAP2K1; assay: Western blot, phospho-MAP2K1 to total ratio in Daoy cell lysates; conditions: PDGFA 10 ng/ml
Description: as §1, with “agitation.” for “agitation. We subsequently incubated the membrane with primary antibody (MAP2K1/2 antibody, phospho-MAP2K1/2 (Ser217/221) antibody, MAPK1/3 (p42/p44 MAPK) antibody, or phospho-MAPK1/3 (Thr202/Tyr204) antibody; Cell Signaling Technology) diluted 1:1000 in blocking buffer overnight at 4° C. We washed the membranes in wash buffer (1% BSA in TBS-T) 3 times (1× for 10 min and 2× for 5 min) and incubated them with anti-rabbit HRP-conjugated secondary antibody (Cell Signaling Technology) diluted 1:2000 in blocking buffer for 1 h with gentle agitation at room temperature. We subsequently washed membranes with gentle agitation 5 times with 1%BSA in TBS-T (1× for 10 min in, 4× for 5 min) and once in TBS-T for 5 min.”

[4] = test system: Daoy cells; assay: Fibronectin-mediated cell adhesion assay (Chemicon QCM-FN); conditions: increasing concentrations of PDGFA, no antibody
Description: Fibronectin-mediated cell adhesion and migration were assessedusing the Chemicon QCM-FN Quantitative Cell Migration Assay (Chemicon International). Briefly, Daoy cells were grown in EMEM withh 10% FBS to 80% confluency and starved in serum-free EMEM for 24 h. Cells were washed twice with PBS, harvested them with trypsin/EDTA, and resuspended them in serum-free EMEM (1×10^6 cells/ml) with 5% BSA for 1 h. We subsequently incubated cells at 37 ° C. for 30 min with either no antibody, 0.6 ug/ml of neutralizing monoclonal anti-human PDGFRA antibody (R&D Systems), 0.6 ug/mi isotype-matched control antibody (R&D Systems), and or first pretreated them with 10 μM of MAP2K1/MAP2K2 inhibitor U0126 (Cell Signaling Technology) for 1 h. […] We aliquoted eluant (50 μl)×2 for each test sample into microtiter plates, and read the optical density (OD540-570) on a ThermoMax microplate reader (Molecular Devices). Using standardized migration rates of 130 cells per mm^2 equivalent to an OD550 of 0.270 (per Chemicon product insert), we obtained the final cell counts by averaging the two OD measurements (540 nm and 570 nm) after subtraction of the BSA control measurements (background), and determined significance (P value) using a t-test. […]

[5] = test system: MAP2K2; assay: Western blot, phospho-MAP2K2 to total ratio in Daoy cell lysates; conditions: PDGFA 10 ng/ml
Description: as §1, with “agitation.” for “agitation. We subsequently incubated the membrane with primary antibody (MAP2K1/2 antibody, phospho-MAP2K1/2 (Ser217/221) antibody, MAPK1/3 (p42/p44 MAPK) antibody, or phospho-MAPK1/3 (Thr202/Tyr204) antibody; Cell Signaling Technology) diluted 1:1000 in blocking buffer overnight at 4° C. We washed the membranes in wash buffer (1% BSA in TBS-T) 3 times (1× for 10 min and 2× for 5 min) and incubated them with anti-rabbit HRP-conjugated secondary antibody (Cell Signaling Technology) diluted 1:2000 in blocking buffer for 1 h with gentle agitation at room temperature. We subsequently washed membranes with gentle agitation 5 times with 1%BSA in TBS-T (1× for 10 min in, 4× for 5 min) and once in TBS-T for 5 min.”

Molecule	decrease in baseline phosphorylation of MAPK1/3, fold ([1]; U0126 10 μM pretreatment 1 h, at start of migration assay)	effect on PDGFA-mediated MAPK1/3 phosphorylation ([1]; U0126 pre-treatment then PDGFA (FIG. 6b))	decreased cell migration, % ([2]; U0126 10 μM pretreatment, no PDGFA)	migration, % of normal baseline migration ([2]; U0126 treated cells, 1 ng/ml PDGFA)	Daoy cell migration ([2]; U0126 treated cells, 1 ng/ml PDGFA, baseline 275, P<0.05)	migration, % of normal baseline migration ([2]; U0126 treated cells, 10 ng/ml PDGFA)	Daoy cell migration ([2]; U0126 treated cells, 10 ng/ml PDGFA, baseline 275, P<0.05)	Daoy cell migration ([2]; U0126 treated cells, no PDGFA, untreated 275, P<0.05)	increase in MAP2K1 phosphorylation, fold [3]	increase in MAPK1/3 phosphorylation, fold ([1]; PDGFA 10 ng/ml)	stimulation of Daoy migration across fibronectin-coated membranes, fold ([2]; 1 ng/ml PDGFA in lower well, vs no PDGFA)	Daoy cell migration ([2]; 1 ng/ml PDGFA in lower well, untreated 212)	Daoy cell migration ([2]; 4 ng/ml PDGFA in lower well, untreated 212)	increase in Daoy migration, fold ([2]; 10 ng/ml PDGFA in lower well, vs no PDGFA)	Daoy cell migration ([2]; 10 ng/ml PDGFA in lower well, untreated 212)	effect on adhesion of Daoy cells to fibronectin [4]	increase in MAP2K2 phosphorylation, fold [5]
N#CC(=C(/N)Sc1ccccc1N)/C(C#N)=C(\N)Sc1ccccc1N [U0126]	9 fold	blocks PDGFA-mediated MAPK1/3 phosphorylation	50%	57%	158 cells/mm^2	65%	188 cells/mm^2	139 cells/mm^2									
PDGFA: PDGFRA ligand, growth factor (Chemicon) used to stimulate Daoy cells									1.6 fold	1.7 fold	approximately 3 fold	640 cells/mm^2	819 cells/mm^2	4 fold	847 cells/mm^2	did not affect the adhesion	1.3 fold
